Laboratory results published in ChEMBL document CHEMBL4602643, “Anti-inflammatory activities of isopimara-8(14),-15-diene diterpenoids and mode of action of kaempulchraols P and Q from Kaempferia pulchra rhizomes” (Bioorg Med Chem Lett, 2020).
The source made the active and inactive calls. The calls are words filed in the database; no cut-off is given here.

How the values were obtained:
[1] = Cytotoxicity against mouse RAW264.7 cells assessed as cell survival at 100 uM; assay type: cell-based; conditions: read-out: Activity
RAW264.7 [2] = assay: Anti-inflammatory activity in mouse RAW264.7 cells assessed as inhibition of LPS-induced NO production at 5 uM relative to control; assay type: functional
RAW264.7 [3] = assay: Anti-inflammatory activity in mouse RAW264.7 cells assessed as inhibition of LPS-induced NO production; assay type: functional, cell-based
RAW264.7 [4] = assay: Anti-inflammatory activity in mouse RAW264.7 cells assessed as inhibition of LPS-induced NO production at 100 uM relative to control; assay type: functional
RAW264.7 [5] = assay: Anti-inflammatory activity in mouse RAW264.7 cells assessed as inhibition of LPS-induced NO production at 10 uM relative to control; assay type: functional
RAW264.7 [6] = assay: Anti-inflammatory activity in mouse RAW264.7 cells assessed as inhibition of LPS-induced NO production at 50 uM relative to control; assay type: functional
[7] = Cytotoxicity against mouse RAW264.7 cells assessed as cell survival at 10 uM; assay type: cell-based; conditions: read-out: Activity
[8] = Cytotoxicity against mouse RAW264.7 cells assessed as cell survival at 5 uM; assay type: cell-based; conditions: read-out: Activity
[9] = Cytotoxicity against mouse RAW264.7 cells assessed as cell survival at 50 uM; assay type: cell-based; conditions: read-out: Activity
RAW264.7 [10] = assay: Antiinflammatory activity in mouse RAW264.7 cells assessed as inhibition of LPS-induced COX2 expression at 25 uM incubated for 24 hrs by Western blot analysis; assay type: functional, cell-based
RAW264.7 [11] = assay: Inhibition of NF-kappaB activation in mouse RAW264.7 cells expressing luciferase gene at 5 to 25 uM by luciferase reporter gene assay; assay type: cell-based
RAW264.7 [12] = assay: Inhibition of LPS-induced IL-6 production in mouse RAW264.7 cells at 25 uM by ELISA; assay type: functional, cell-based
RAW264.7 [13] = assay: Inhibition of LPS-induced NF-kappaB activation in mouse RAW264.7 cells expressing luciferase gene at 5 to 25 uM by luciferase reporter gene assay; assay type: cell-based
RAW264.7 [14] = assay: Cytotoxicity against mouse RAW264.7 cells expressing luciferase reporter gene assessed as cell survival at 5 to 25 uM; assay type: cell-based; conditions: raw264.7, 25 µM
J774.1 = assay: Anti-inflammatory activity in mouse J774.1 cells assessed as inhibition of LPS-induced NO production preincubated for 2 hrs before LPS stimulation and measured after 24 hrs by Griess method; assay type: functional, cell-based
RAW264.7 [15] = assay: Cytotoxicity against mouse RAW264.7 cells assessed as reduction in cell viability; assay type: cell-based

Structure (SMILES) | viability at 100 µM [1] | inhibition at 5 µM (RAW264.7 [2]) | IC50 (RAW264.7 [3]) | inhibition at 100 µM (RAW264.7 [4]) | inhibition at 10 µM (RAW264.7 [5]) | inhibition at 50 µM (RAW264.7 [6]) | viability at 10 µM [7] | viability at 5 µM [8] | viability at 50 µM [9] | inhibition (RAW264.7 [10]) | inhibition (RAW264.7 [11]) | inhibition (RAW264.7 [12]) | inhibition (RAW264.7 [13]) | Activity (RAW264.7 [14]) | IC50 (J774.1) | IC50 (RAW264.7 [15])
C=C[C@]1(C)C=C2C[C@@H](OC(C)=O)[C@H]3C(C)(C)CCC[C@]3(C)[C@@]2(O)CC1 | 76% | 17.7% | > 100 µM | -3.85% | 9.03% | 7.9% | 82% | 76.9% | 68.8% | – | – | – | – | – | – | –
C=C[C@]1(C)C=C2[C@@H](O)C[C@H]3C(C)(C)CCC[C@]3(C)[C@@]2(O)CC1 | 71.3% | 18.4% | > 100 µM | -5.96% | 14.8% | 5.89% | 98.8% | 114% | 73.3% | – | – | – | – | – | – | –
C=C[C@]1(C)C=C2C[C@@H](O)[C@H]3C(C)(C)CCC[C@]3(C)[C@H]2CC1 | 66.8% | 9.97% | 39.9 µM | 81.7% | 3.82% | 65.6% | 149% | 98.7% | 109% | Active | Active | Active | Active | Non-Toxic | – | –
CNC(=N)NCCC[C@H](N)C(=O)O [TILARGININE ACETATE] | 103% | 22.8% | 65.5 µM | 58.2% | 27% | 46.3% | 92.6% | 112% | 107% | – | – | – | – | – | – | –
C=C[C@]1(C)C=C2CC[C@H]3C(C)(C)C[C@H](O)[C@H](O)[C@]3(C)[C@H]2[C@H](O)C1 | 66.5% | 17.2% | > 100 µM | 22.4% | 11.1% | 37.1% | 50.9% | 65.7% | 60.9% | – | – | – | – | – | – | –
C=C[C@@]1(C)C[C@@H](OC(=O)c2ccccc2)[C@@H]2[C@@]3(C)C=C(O)C(=O)C(C)(C)[C@@H]3C[C@@H](OC(C)=O)[C@@]2(O)C1=O | – | – | – | – | – | – | – | – | – | – | – | – | – | – | 14.4 µM | –
C=C[C@]1(C)C=C2CC[C@H]3C(C)(C)C[C@H](O)[C@H](O)[C@]3(C)[C@@]2(O)CC1 | 27.6% | 18.1% | > 100 µM | 20.8% | 7.8% | 21% | 85.3% | 85.7% | 27.5% | – | – | – | – | – | – | –
C=C[C@]1(C)C=C2[C@H](OC(C)=O)C[C@H]3C(C)(C)CCC[C@]3(C)[C@@]2(O)CC1 | 4.72% | 20.7% | 41.5 µM | 80.5% | 14.9% | 59.5% | 98.3% | 71.5% | 88.7% | – | – | – | – | – | – | –
C=C[C@]1(C)C=C2[C@@H](O)[C@@H](O)[C@H]3C(C)(C)CCC[C@]3(C)[C@@]2(O)CC1 | 22.1% | 5.03% | 48.4 µM | 60.4% | 16.9% | 51.4% | 81.2% | 140% | 60.2% | – | – | – | – | – | – | > 50 µM
C=C[C@]1(C)C=C2CC[C@H]3C(C)(C)CC[C@H](O)[C@]3(C)[C@H]2CC1 | 3.78% | 27.2% | 53.8 µM | 80.5% | 14% | 47.5% | 77.4% | 57.7% | 67.6% | – | – | – | – | – | – | –
C=C[C@]1(C)C=C2[C@H](OC(C)=O)[C@@H](O)[C@H]3C(C)(C)CCC[C@]3(C)[C@H]2CC1 | 3.73% | -0.32% | 32.8 µM | 82.1% | 9.88% | 80.3% | 107% | 100% | 6.17% | – | – | – | – | – | – | 32.6 µM
C=C[C@]1(C)C=C2C[C@@H](O)[C@H]3C(C)(C)[C@H](O)C[C@H](O)[C@]3(C)[C@H]2CC1 | 101% | 9.01% | > 100 µM | 24.1% | 15.2% | 34.3% | 113% | 104% | 89.4% | – | – | – | – | – | – | –
C=C[C@]1(C)C=C2C[C@@H](O)[C@H]3C(C)(C)CCC[C@]3(C)[C@@]2(OC)CC1 | 37.6% | 4.09% | 56.2 µM | 74.2% | 10.8% | 46.6% | 104% | 121% | 110% | – | – | – | – | – | – | –
C=C[C@]1(C)C=C2[C@@H](OC(C)=O)[C@@H](O)[C@H]3C(C)(C)CCC[C@]3(C)[C@@]2(O)CC1 | 70.3% | 21.4% | > 100 µM | 47.5% | 16.7% | 24.9% | 84.7% | 89.3% | 85.7% | – | – | – | – | – | – | > 50 µM
C=C[C@@]1(C)C=C2CC[C@@H]3C(C)(C)C[C@@H](O)C[C@@]3(C)[C@@H]2CC1 | 4.35% | 3.43% | 48.7 µM | 81.8% | 7.09% | 50.8% | 115% | 97.5% | 114% | – | – | – | – | – | – | –
C=C[C@]1(C)C=C2C(=O)C[C@H]3C(C)(C)CC[C@H](O)[C@]3(C)[C@H]2CC1 | 77.8% | 16.5% | > 100 µM | 35.5% | 7.8% | 25.1% | 92.4% | 86.6% | 86.8% | – | – | – | – | – | – | –
C=C[C@]1(C)C[C@@H](OC(=O)c2ccccc2)[C@H]2[C@](O)(C1=O)[C@H](OC(C)=O)C[C@H]1C(C)(C)[C@H](O)[C@H](OC(C)=O)[C@H](OC(=O)c3ccccc3)[C@@]12C | – | – | – | – | – | – | – | – | – | – | – | – | – | – | 11.5 µM | –
C=C[C@]1(C)C[C@@H](OC(=O)c2ccccc2)[C@H]2[C@](O)(C1=O)[C@H](OC(C)=O)C[C@H]1C(C)(C)[C@H](OC(C)=O)[C@H](O)[C@H](OC(=O)c3ccccc3)[C@@]12C | – | – | – | – | – | – | – | – | – | – | – | – | – | – | 20.5 µM | –
C=C[C@]1(C)C=C2CC[C@H]3C(C)(C)[C@H](O)C[C@H](O)[C@]3(C)[C@H]2CC1 | 47.7% | 5.57% | > 100 µM | 33.8% | 13.3% | 33.4% | 85.1% | 104% | 50% | – | – | – | – | – | – | –
C=C[C@]1(C)C=C2CC[C@H]3C(C)(C)C[C@H](O)[C@H](O)[C@]3(C)[C@H]2CC1 | 73.5% | 4.21% | 100 µM | 49.2% | 9.37% | 37.1% | 70.4% | 113% | 70.6% | – | – | – | – | – | – | –
C=C[C@]1(C)C=C2CC[C@H]3C(C)(C)CC[C@H](O)[C@]3(C)[C@H]2[C@H](O)C1 | 27.8% | 13.4% | 95.3 µM | 50.4% | 6.28% | 46.6% | 86.7% | 78.4% | 35.9% | – | – | – | – | – | – | –
C=C[C@]1(C)C=C2C[C@@H](O)[C@H]3C(C)(C)CC[C@H](O)[C@]3(C)[C@H]2CC1 | 67% | 17.4% | > 100 µM | 26.3% | 17.7% | 35.2% | 65.7% | 72.9% | 52.2% | – | – | – | – | – | – | –
C=C[C@]1(C)C=C2C(=O)C[C@H]3C(C)(C)CCC[C@]3(C)[C@@]2(O)CC1 | 45.8% | 33.3% | > 100 µM | 41.6% | 32.5% | 40.1% | 83.3% | 93.3% | 50.7% | – | – | – | – | – | – | –
C=C[C@]1(C)C=C2[C@H](O)C[C@H]3C(C)(C)CCC[C@]3(C)[C@H]2CC1 | 34.2% | 17.4% | 41.7 µM | 67.6% | 14.4% | 59.3% | 65.8% | 76.9% | 58.8% | – | – | – | – | – | – | –
